Assay: solvent given as SMILES

| Compound | fluorescence lifetime (in Cc1ccccc1) [ns] | fluorescence lifetime (in CC#N) [ns] | fluorescence lifetime (in CC(C)=O) [ns] | fluorescence lifetime (in CC(C)O) [ns] | fluorescence lifetime (in CCCCOCCCC) [ns] | fluorescence lifetime (in CCOC(C)=O) [ns] | fluorescence lifetime (in CCOCC) [ns] | fluorescence lifetime (in CO) [ns] | fluorescence lifetime (in Clc1ccccc1) [ns] | fluorescence lifetime (in N#Cc1ccccc1) [ns] | fluorescence lifetime (in O=C1CCCCC1) [ns] | fluorescence lifetime (in C1CCOC1) [ns] |
| --- | --- | --- | --- | --- | --- | --- | --- | --- | --- | --- | --- | --- |
| CCCCC(CC)CN1C(=O)c2cc(Oc3ccc(C(C)(C)C)cc3)c3c4c(Oc5ccc(OC)cc5)cc5c6c(cc(Oc7ccc(OC)cc7)c(c7c(Oc8ccc(C(C)(C)C)cc8)cc(c2c37)C1=O)c64)C(=O)N(c1c(C(C)C)cccc1C(C)C)C5=O (stereo not drawn) | 5.25 | – | – | – | – | – | – | – | – | – | – | – |
| COc1nc(Cl)nc(Nc2ccc3c4c(cccc24)C(=O)c2ccccc2-3)n1 | 2.8 | 8.4 | 7.7 | 8 | 0.9 | 3.9 | 1.6 | 7.7 | 5.4 | 7.8 | 6.3 | – |
| Cc1cc(C2=C(c3c(C)sc(-c4ccc(-c5nc(-c6ccccc6)c(-c6ccccc6)[nH]5)cc4)c3C)C(F)(F)C(F)(F)C2(F)F)c(C)s1 | – | – | – | – | – | – | – | – | – | – | – | 0.54 |
